pIC50, pKi: −log10 of the molar value. Active and inactive are the calls of the source. No cut-off for these calls is given here. Where only a bound is given, the exact number is not on record here.

For one data set, the target named is Carbonic anhydrase 9 (Homo sapiens, UniProt Q16790). Kind of data set: Inhibition of recombinant human CA-IX incubated for 15 mins by phenol red dye based stopped-flow CO2 hydration assay.
The nature of data set [1]: Cytotoxicity against human HGF cells at 10 uM incubated for 24 hrs by MTS assay. The class given is toxicity, cell-based.
Data set [2] has as its system MeWo. Kind of data set: Cytotoxicity against human MeWo cells at 50 uM incubated for 24 hrs by MTS assay. The class given is functional, cell-based.
Data set [3] deals with SK-BR-3. Kind of data set: Cytotoxicity against human SK-BR-3 cells at 10 uM incubated for 24 hrs by MTS assay. Type of data set: functional, cell-based.
For data set [4], the system named is MeWo. Kind of data set: Cytotoxicity against human MeWo cells at 10 uM incubated for 24 hrs by MTS assay. Type of data set: functional, cell-based.
The subject of data set [5] is SK-BR-3. Kind of data set: Cytotoxicity against human SK-BR-3 cells at 50 uM incubated for 24 hrs by MTS assay. The class given is functional, cell-based.
The nature of data set [6]: Cytotoxicity against human HGF cells at 50 uM incubated for 24 hrs by MTS assay. Type of data set: toxicity, cell-based.
The subject of data set [7] is MG-63. Kind of data set: Cytotoxicity against human MG-63 cells at 50 uM incubated for 24 hrs by MTS assay. Type of data set: functional, cell-based.
The test system of data set [8] is MG-63. Kind of data set: Cytotoxicity against human MG-63 cells at 10 uM incubated for 24 hrs by MTS assay. The class given is functional, cell-based.
Data set [9] in a line: Cytotoxicity against human HGF cells assessed as inhibition of cell viability incubated for 24 hrs by MTS assay. The class given is toxicity, cell-based.
The subject of data set [10] is MeWo. Kind of data set: Cytotoxicity against human MeWo cells assessed as inhibition of cell viability incubated for 24 hrs by MTS assay. Type of data set: functional, cell-based.
A short description of data set [11]: Synergistic cytotoxicity against human HGF cells assessed as cell viability at 10 uM incubated for 24 hrs in presence of DOX by MTS assay relative to control. The class given is toxicity, cell-based. To be noted: read-out: Activity.
A short description of data set [12]: Synergistic cytotoxicity against human HGF cells assessed as inhibition of cell viability incubated for 24 hrs in presence of DOX by MTS assay. The class given is toxicity, cell-based.
Data set [13] deals with MeWo. Kind of data set: Synergistic cytotoxicity against human MeWo cells assessed as inhibition of cell viability incubated for 24 hrs in presence of DOX by MTS assay. The class given is functional, cell-based.
Data set [14] relates to MeWo. Kind of data set: Synergistic cytotoxicity against human MeWo cells assessed as inhibition of cell viability at 10 uM incubated for 24 hrs in presence of DOX by MTS assay. The class given is functional, cell-based.

In the case of `NS(=O)(=O)c1cccc(NC2=CC(c3ccco3)N(c3cccc(S(N)(=O)=O)c3)C2=O)c1` (stereo unspecified), the pKi on Carbonic anhydrase 9 was 7.10.
Regarding `CCCCc1ccc(C2C=C(Nc3cccc(S(N)(=O)=O)c3)C(=O)N2c2cccc(S(N)(=O)=O)c2)cc1` (stereo unspecified), the results for the Activity result in data set [1] and in [6] were “Non-toxic” and “Toxic”, respectively. The outcome in the data set on MeWo [2], with SK-BR-3 [5] and in the data set on MG-63 [7] was Active. Besides, the result in the data set with SK-BR-3 [3], in the data set with MeWo [4] and with MG-63 [8] was inactive. For the same molecule, the pKi on Carbonic anhydrase 9 is 6.25.
With `NS(=O)(=O)c1cccc(NC2=CC(c3cc(C(F)(F)F)cc(C(F)(F)F)c3)N(c3cccc(S(N)(=O)=O)c3)C2=O)c1` (stereo unspecified), the pKi at Carbonic anhydrase 9 was 6.27.
As for `COc1ccc(C2C=C(Nc3cccc(S(N)(=O)=O)c3)C(=O)N2c2cccc(S(N)(=O)=O)c2)cc1OC` (stereo unspecified), the pKi at Carbonic anhydrase 9 is 7.06.
Consider `NS(=O)(=O)c1cccc(NC2=CC(c3ccc(Br)cc3)N(c3cccc(S(N)(=O)=O)c3)C2=O)c1` (stereo unspecified), for which the pKi on Carbonic anhydrase 9 was 6.41.
In the case of `NS(=O)(=O)c1cccc(NC2=CC(c3ccc4c(c3)OCO4)N(c3cccc(S(N)(=O)=O)c3)C2=O)c1` (stereo unspecified), the pKi on Carbonic anhydrase 9 was 6.35.
As for `COc1cc(C2C=C(Nc3cccc(S(N)(=O)=O)c3)C(=O)N2c2cccc(S(N)(=O)=O)c2)cc(OC)c1O` (stereo unspecified), the Activity result in data set [1] is “Non-toxic”. For the same molecule, the outcome in the data set with SK-BR-3 [3], in the data set with MeWo [4] and in the data set with MG-63 [8] was inactive. Moreover, the pKi at Carbonic anhydrase 9 is 7.52.
Consider `COc1cccc(C2C=C(Nc3cccc(S(N)(=O)=O)c3)C(=O)N2c2cccc(S(N)(=O)=O)c2)c1O` (stereo unspecified), for which the IC50 at 24 h in data set [9] came to 70.7 µM; in [12], 27.5 µM. In addition, the Activity entry in [1] is on record as “Non-toxic”. Further, the result in the data set on SK-BR-3 [3], in the data set with MeWo [4] and in the data set on MG-63 [8] was inactive. Further, on Carbonic anhydrase 9, the pKi is 8.15. Further, the figures for the pIC50 with MeWo [10] and in the data set with MeWo [13] were 4.20 and 4.95, respectively. Also, the viability at 24 h, 10 µM in [11] was more than 70%. Moreover, the outcome in the data set with MeWo [14] was Active.
Take `COc1ccc(O)c(C2C=C(Nc3cccc(S(N)(=O)=O)c3)C(=O)N2c2cccc(S(N)(=O)=O)c2)c1` (stereo unspecified): the pKi on Carbonic anhydrase 9 is 7.28.
Turning to `COc1cc(C2C=C(Nc3cccc(S(N)(=O)=O)c3)C(=O)N2c2cccc(S(N)(=O)=O)c2)ccc1O` (stereo unspecified), on Carbonic anhydrase 9, the negative-log Ki (pKi) is 6.43.
Turning to `NS(=O)(=O)c1cccc(NC2=CC(c3ccc(C(F)(F)F)cc3)N(c3cccc(S(N)(=O)=O)c3)C2=O)c1` (stereo unspecified), at Carbonic anhydrase 9, the negative logarithm of the Ki (pKi) was 6.08.
Take `CC(C)c1ccc(C2C=C(Nc3cccc(S(N)(=O)=O)c3)C(=O)N2c2cccc(S(N)(=O)=O)c2)cc1` (stereo unspecified): at Carbonic anhydrase 9, the pKi was 6.21.
On to `COc1ccc(C2C=C(Nc3cccc(S(N)(=O)=O)c3)C(=O)N2c2cccc(S(N)(=O)=O)c2)cc1O` (stereo unspecified), for which, in [1], the Activity result was “Non-toxic”. The result with SK-BR-3 [3], in the data set with MeWo [4] and with MG-63 [8] was inactive. For the same molecule, the negative-log Ki (pKi) on Carbonic anhydrase 9 is 7.02.
Take `NS(=O)(=O)c1cccc(NC2=CC(c3ccccc3)N(c3cccc(S(N)(=O)=O)c3)C2=O)c1` (stereo unspecified): the negative logarithm of the Ki (pKi) on Carbonic anhydrase 9 is 7.24.
In the case of `N#Cc1ccc(C2C=C(Nc3cccc(S(N)(=O)=O)c3)C(=O)N2c2cccc(S(N)(=O)=O)c2)cc1` (stereo unspecified), the negative-log Ki (pKi) at Carbonic anhydrase 9 is 6.46.
Regarding `COc1ccccc1C1C=C(Nc2cccc(S(N)(=O)=O)c2)C(=O)N1c1cccc(S(N)(=O)=O)c1` (stereo unspecified), at Carbonic anhydrase 9, the pKi was 7.03.
Consider `NS(=O)(=O)c1cccc(NC2=CC(c3ccc(F)cc3)N(c3cccc(S(N)(=O)=O)c3)C2=O)c1` (stereo unspecified), for which the IC50 at 24 h in data set [9] was 85.8 µM; in [12], 19.6 µM. Besides, the Activity result in data set [1] was “Non-toxic”. The result in the data set on SK-BR-3 [3], in the data set on MeWo [4] and in the data set with MG-63 [8] was inactive. Also, the negative-log Ki (pKi) on Carbonic anhydrase 9 is 7.30. In addition, the negative-log IC50 (pIC50) with MeWo [10] is 4.16; with MeWo [13] it was 4.95. The viability at 24 h, 10 µM in data set [11] was more than 70%. The result in the data set with MeWo [14] was Active.
Regarding `NS(=O)(=O)c1cccc(NC2=CC(c3ccccc3O)N(c3cccc(S(N)(=O)=O)c3)C2=O)c1` (stereo unspecified), the IC50 at 24 h in [9] turned out to be 117 µM; in data set [12], 36.4 µM. The Activity result in [1] and in data set [6] was “Non-toxic” in each case. Also, the outcome in the data set on MeWo [2] and in the data set with MeWo [14] was Active. Moreover, the outcome in the data set with SK-BR-3 [3], in the data set on MeWo [4] and with MG-63 [8] was inactive. For the same molecule, the negative logarithm of the Ki (pKi) on Carbonic anhydrase 9 was 6.46. The negative-log IC50 (pIC50) with MeWo [10] was 4.03; in the data set on MeWo [13], 4.91. For the same molecule, the viability at 24 h, 10 µM in data set [11] was more than 70%.

The values above are taken from ChEMBL document CHEMBL6087485, “Novel 3-Sulfonamide Dual-Tail Pyrrol-2-one Bridged Molecules as Potent Human Carbonic Anhydrase Isoform Inhibitors: Design, Synthesis, Molecular Modeling Investigation, and Anticancer Activity in MeWo, SK-BR-3, and MG-63 Cell Lines” (J Med Chem, 2025).
